Reference: US20250346569A1, “NEW DERIVATIVES FOR TREATING TRPM3 MEDIATED DISORDERS” (Katholieke Universiteit Leuven, priority 2022, published 2025)

Target: T1, mouse TRPM3α2 (mTRPM3) ion channel (Mus musculus, UniProt J9SQF3)
T1 construct: expressed in transfected cells; host or cells: flip-in HEK293
Assay: Monitoring the TRPM3 ion channel driven Ca2+ uptake (Fluo-4 AM assay)
Type: cell-based
Conditions: TRPM3 overexpressing flip-in HEK293 cells, channel stimulated with Pregnenolone sulfate (PS) 50 μM
Description: Monitoring the TRPM3 ion channel driven Ca^2+ uptake.
In order to monitor the inhibition of the mouse TRPM3α2 (mTRPM3) ion channel by the compounds of the invention, a cellular system making use of an mTRPM3alpha2 or hTRPM3 overexpressing cell line (flip-in HEK293) was used. The TRPM3 channel was stimulated/opened with Pregnenolone sulfate (PS) (50 μM) which results in Ca^2+ influx.
For mTRPM3, the intracellular Ca^2+ was measured with a Calcium responsive dye, Fluor-4 AM ester (Invitrogen). Cells were cultured until a confluence of 80-90%, washed with Versene (Invitrogen) and detached from the surface by a short incubation with 0.05% Trypsin (Invitrogen). The trypsination process was stopped by the addition of complete cell culture medium (DMEM, glutamax,10% FCS,NEAA,Pen-Strep). Cells were collected and resuspended in Krebs buffer without Calcium at RT.
Prior the cell seeding (±2000 cells/well into a black, 384 well plate (Greiner)) the diluted compound was added in the assay plate, together with the PS dissolved in Krebs buffer containing Calcium. […] Directly after cell addition the plates were read on an Envision fluorescence reader (Perkin Elmer) by an Excitation of 485 nm and emission at 535 nm.
Channel inhibition was calculated compared to a non-PS stimulated control versus a condition stimulated with PS (50 μM) with vehicle. The ability of the compounds of the invention to inhibit this activity was determined as: Percentage inhibition=[1−((RFU determined for sample with test compound present−RFU determined for sample with positive control inhibitor) divided by (RFU determined in the presence of vehicle−RFU determined for sample with positive control inhibitor))]*100.
The activities of the Example compounds tested are depicted in the table below. The activity ranges A, B and C refer to IC50 values in the Fluo-4 AM assay as follows: “A”: IC50<1 μM; “B”: 1 μM≤IC50≤20 μM and “C”: IC50>20 μM

T1 sequence (J9SQF3 1-1709 isoform J9SQF3-12): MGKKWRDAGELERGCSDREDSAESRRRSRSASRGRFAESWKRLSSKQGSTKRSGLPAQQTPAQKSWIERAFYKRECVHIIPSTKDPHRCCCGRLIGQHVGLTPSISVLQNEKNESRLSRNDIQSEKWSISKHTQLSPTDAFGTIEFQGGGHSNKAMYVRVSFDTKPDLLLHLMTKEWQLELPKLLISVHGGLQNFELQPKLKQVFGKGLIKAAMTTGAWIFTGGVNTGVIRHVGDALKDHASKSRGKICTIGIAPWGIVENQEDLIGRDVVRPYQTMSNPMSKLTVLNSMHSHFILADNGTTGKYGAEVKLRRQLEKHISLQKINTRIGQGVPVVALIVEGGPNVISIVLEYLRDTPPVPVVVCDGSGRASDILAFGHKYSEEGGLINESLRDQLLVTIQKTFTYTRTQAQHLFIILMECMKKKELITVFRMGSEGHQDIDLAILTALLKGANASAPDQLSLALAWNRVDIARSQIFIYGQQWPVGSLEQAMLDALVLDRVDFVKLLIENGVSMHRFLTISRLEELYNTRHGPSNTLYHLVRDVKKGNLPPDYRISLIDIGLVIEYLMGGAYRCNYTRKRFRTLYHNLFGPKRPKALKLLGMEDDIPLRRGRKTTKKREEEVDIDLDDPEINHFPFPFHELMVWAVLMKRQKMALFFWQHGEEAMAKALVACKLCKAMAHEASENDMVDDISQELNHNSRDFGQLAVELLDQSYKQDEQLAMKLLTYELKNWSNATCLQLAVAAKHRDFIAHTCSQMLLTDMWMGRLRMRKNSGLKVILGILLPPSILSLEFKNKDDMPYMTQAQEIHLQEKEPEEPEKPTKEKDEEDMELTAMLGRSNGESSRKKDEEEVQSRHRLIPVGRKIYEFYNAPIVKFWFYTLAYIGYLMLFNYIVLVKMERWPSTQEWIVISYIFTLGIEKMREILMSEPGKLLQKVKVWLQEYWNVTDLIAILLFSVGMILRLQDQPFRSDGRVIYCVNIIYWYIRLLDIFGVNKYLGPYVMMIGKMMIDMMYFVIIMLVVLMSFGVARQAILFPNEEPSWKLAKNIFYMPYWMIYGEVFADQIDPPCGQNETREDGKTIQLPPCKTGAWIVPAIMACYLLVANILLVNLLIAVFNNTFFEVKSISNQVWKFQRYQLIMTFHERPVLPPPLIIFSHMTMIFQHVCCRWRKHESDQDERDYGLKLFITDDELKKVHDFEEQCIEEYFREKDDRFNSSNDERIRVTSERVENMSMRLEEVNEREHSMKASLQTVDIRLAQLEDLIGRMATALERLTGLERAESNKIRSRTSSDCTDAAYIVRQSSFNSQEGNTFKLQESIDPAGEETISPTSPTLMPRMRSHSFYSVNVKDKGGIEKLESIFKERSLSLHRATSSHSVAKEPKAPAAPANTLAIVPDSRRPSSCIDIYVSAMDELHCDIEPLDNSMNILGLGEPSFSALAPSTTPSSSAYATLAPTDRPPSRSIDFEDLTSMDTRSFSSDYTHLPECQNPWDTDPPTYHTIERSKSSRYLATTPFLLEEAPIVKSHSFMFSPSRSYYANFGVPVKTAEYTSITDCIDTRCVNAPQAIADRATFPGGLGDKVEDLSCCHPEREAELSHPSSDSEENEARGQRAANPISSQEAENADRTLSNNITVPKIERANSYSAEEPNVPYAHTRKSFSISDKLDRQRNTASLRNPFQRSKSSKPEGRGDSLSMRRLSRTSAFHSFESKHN

Row | SMILES | IC50
1 | Cc1nc(COc2ccc3sc(C)c(C(=O)NC(C)(CO)C(N)=O)c3c2)cs1 (single isomer, unassigned) [Cpd 015 - En1, 3-hydroxy-2-methyl-2-({2-methyl-5-[(2-methyl-1,3-thiazol-4-yl)methoxy]-1-benzothiophen-3-yl}formamido)propanamide] | < 1000 nM
2 | Cc1nc(COc2ccc3sc(C)c(C(=O)NC(C)(CO)C(N)=O)c3c2)cs1 (single isomer, unassigned) [Cpd 015 - En2, 3-hydroxy-2-methyl-2-({2-methyl-5-[(2-methyl-1,3-thiazol-4-yl)methoxy]-1-benzothiophen-3-yl}formamido)propanamide] | < 1000 nM
3 | Cc1ncc(COc2ccc3sc(C)c(C(=O)NC(C)(CO)C(N)=O)c3c2)s1 (single isomer, unassigned) [Cpd 019 - En1, 3-hydroxy-2-methyl-2-({2-methyl-5-[(2-methyl-1,3-thiazol-5-yl)methoxy]-1-benzothiophen-3-yl}formamido)propanamide] | < 1000 nM
4 | Cc1ncc(COc2ccc3sc(C)c(C(=O)NC(C)(CO)C(N)=O)c3c2)s1 (single isomer, unassigned) [Cpd 019 - En2, 3-hydroxy-2-methyl-2-({2-methyl-5-[(2-methyl-1,3-thiazol-5-yl)methoxy]-1-benzothiophen-3-yl}formamido)propanamide] | < 1000 nM
5 | Cc1ncsc1COc1ccc2sc(C)c(C(=O)NC3CCNCC3(F)F)c2c1 (single isomer, unassigned) [Cpd 042 - En1, N-(3,3-difluoropiperidin-4-yl)-2-methyl-5-[(4-methyl-1,3-thiazol-5-yl)methoxy]-1-benzothiophene-3-carboxamide] | < 1000 nM
6 | Cc1ncsc1COc1ccc2sc(C)c(C(=O)NC3CCNCC3(F)F)c2c1 (single isomer, unassigned) [Cpd 042 - En2, N-(3,3-difluoropiperidin-4-yl)-2-methyl-5-[(4-methyl-1,3-thiazol-5-yl)methoxy]-1-benzothiophene-3-carboxamide] | < 1000 nM
7 | Cc1sc2ccc(OCC3CCOCC3)cc2c1C(=O)NC(C)(CO)C(N)=O (single isomer, unassigned) [Cpd 067 - En1, 3-hydroxy-2-methyl-2-({2-methyl-5-[(oxan-4-yl)methoxy]-1-benzothiophen-3-yl}formamido)propanamide] | > 20000 nM
8 | Cc1sc2ccc(OCC3CCOCC3)cc2c1C(=O)NC(C)(CO)C(N)=O (single isomer, unassigned) [Cpd 067 - En2, 3-hydroxy-2-methyl-2-({2-methyl-5-[(oxan-4-yl)methoxy]-1-benzothiophen-3-yl}formamido)propanamide] | 1000 to 20000 nM
9 | Cc1sc2ccc(OCC3COC3)cc2c1C(=O)NC(C)(CO)C(N)=O (single isomer, unassigned) [Cpd 068 - En1, 3-hydroxy-2-methyl-2-({2-methyl-5-[(oxetan-3-yl)methoxy]-1-benzothiophen-3-yl}formamido)propanamide] | > 20000 nM
10 | Cc1sc2ccc(OCC3COC3)cc2c1C(=O)NC(C)(CO)C(N)=O (single isomer, unassigned) [Cpd 068 - En2, 3-hydroxy-2-methyl-2-({2-methyl-5-[(oxetan-3-yl)methoxy]-1-benzothiophen-3-yl}formamido)propanamide] | 1000 to 20000 nM
11 | Cc1sc2ccc(OCc3ccccc3F)cc2c1C(=O)NC1CCNCC1(F)F (single isomer, unassigned) [Cpd 095 - En1, N-(3,3-difluoropiperidin-4-yl)-5-[(2-fluorophenyl)methoxy]-2-methyl-1-benzothiophene-3-carboxamide] | 1000 to 20000 nM
12 | Cc1sc2ccc(OCc3ccccc3F)cc2c1C(=O)NC1CCNCC1(F)F (single isomer, unassigned) [Cpd 095 - En2, N-(3,3-difluoropiperidin-4-yl)-5-[(2-fluorophenyl)methoxy]-2-methyl-1-benzothiophene-3-carboxamide] | 1000 to 20000 nM
13 | CNC(=O)C(C)(CO)NC(=O)c1c(C)sc2ccc(OCc3cnc(C)s3)cc12 (single isomer, unassigned) [Cpd 132 - En1, 3-hydroxy-N,2-dimethyl-2-({2-methyl-5-[(2-methyl-1,3-thiazol-5-yl)methoxy]-1-benzothiophen-3-yl}formamido)propanamide] | < 1000 nM
14 | CNC(=O)C(C)(CO)NC(=O)c1c(C)sc2ccc(OCc3cnc(C)s3)cc12 (single isomer, unassigned) [Cpd 132 - En2, 3-hydroxy-N,2-dimethyl-2-({2-methyl-5-[(2-methyl-1,3-thiazol-5-yl)methoxy]-1-benzothiophen-3-yl}formamido)propanamide] | < 1000 nM
15 | CNC(=O)C1(NC(=O)c2c(C)sc3ccc(OCc4cnc(C)s4)cc23)CCOC1 (single isomer, unassigned) [Cpd 133 - En1, N-methyl-3-{2-methyl-5-[(2-methyl-1,3-thiazol-5-yl)methoxy]-1-benzothiophene-3-amido}oxolane-3-carboxamide] | < 1000 nM
16 | CNC(=O)C1(NC(=O)c2c(C)sc3ccc(OCc4cnc(C)s4)cc23)CCOC1 (single isomer, unassigned) [Cpd 133 - En2, N-methyl-3-{2-methyl-5-[(2-methyl-1,3-thiazol-5-yl)methoxy]-1-benzothiophene-3-amido}oxolane-3-carboxamide] | < 1000 nM
17 | Cc1sc2ccc(OCc3ccccc3)cc2c1C(=O)N[C@H](C)C(N)=O [Cpd 001, (2R)-2-{[5-(benzyloxy)-2-methyl-1-benzothiophen-3-yl]formamido}propanamide] | < 1000 nM
18 | Cc1sc2ccc(OCc3ccccc3F)cc2c1C(=O)N[C@H](C)C(N)=O [Cpd 002, (2R)-2-({5-[(2-fluorophenyl)methoxy]-2-methyl-1-benzothiophen-3-yl}formamido)propanamide] | < 1000 nM
19 | Cc1sc2ccc(OCc3ccccn3)cc2c1C(=O)N[C@H](C)C(N)=O [Cpd 003, (2R)-2-({2-methyl-5-[(pyridin-2-yl)methoxy]-1-benzothiophen-3-yl}formamido)propanamide] | < 1000 nM
20 | Cc1sc2ccc(OCc3cccnc3C(F)(F)F)cc2c1C(=O)N[C@H](C)C(N)=O [Cpd 004, (2R)-2-[(2-methyl-5-{[2-(trifluoromethyl)pyridin-3-yl]methoxy}-1-benzothiophen-3-yl)formamido]propanamide] | < 1000 nM
21 | Cc1ncc(COc2ccc3sc(C)c(C(=O)N[C@H](C)C(N)=O)c3c2)s1 [Cpd 005, (2R)-2-({2-methyl-5-[(2-methyl-1,3-thiazol-5-yl)methoxy]-1-benzothiophen-3-yl}formamido)propanamide] | < 1000 nM
22 | Cc1ncsc1COc1ccc2sc(C)c(C(=O)N[C@H](C)C(N)=O)c2c1 [Cpd 006, (2R)-2-({2-methyl-5-[(4-methyl-1,3-thiazol-5-yl)methoxy]-1-benzothiophen-3-yl}formamido)propanamide] | < 1000 nM
23 | Cc1sc2ccc(OCc3ccccc3F)cc2c1C(=O)N[C@@H](C)C(N)=O [Cpd 007, (2S)-2-({5-[(2-fluorophenyl)methoxy]-2-methyl-1-benzothiophen-3-yl}formamido)propanamide] | < 1000 nM
24 | Cc1sc2ccc(OCc3ccccn3)cc2c1C(=O)N[C@@H](C)C(N)=O [Cpd 008, (2S)-2-({2-methyl-5-[(pyridin-2-yl)methoxy]-1-benzothiophen-3-yl}formamido)propanamide] | < 1000 nM
25 | Cc1sc2ccc(OCc3cccnc3C(F)(F)F)cc2c1C(=O)N[C@@H](C)C(N)=O [Cpd 009, (2S)-2-[(2-methyl-5-{[2-(trifluoromethyl)pyridin-3-yl]methoxy}-1-benzothiophen-3-yl)formamido]propanamide] | < 1000 nM
26 | Cc1sc2ccc(OCc3cccnc3O)cc2c1C(=O)N[C@@H](C)C(N)=O [Cpd 010, (2S)-2-({5-[(2-hydroxypyridin-3-yl)methoxy]-2-methyl-1-benzothiophen-3-yl}formamido)propanamide] | < 1000 nM
27 | Cc1ncc(COc2ccc3sc(C)c(C(=O)N[C@@H](C)C(N)=O)c3c2)s1 [Cpd 011, (2S)-2-({2-methyl-5-[(2-methyl-1,3-thiazol-5-yl)methoxy]-1-benzothiophen-3-yl}formamido)propanamide] | < 1000 nM
28 | Cc1ncsc1COc1ccc2sc(C)c(C(=O)N[C@@H](C)C(N)=O)c2c1 [Cpd 012, (2S)-2-({2-methyl-5-[(4-methyl-1,3-thiazol-5-yl)methoxy]-1-benzothiophen-3-yl}formamido)propanamide] | < 1000 nM
29 | CC(C)(CNC(=O)c1c(C(F)F)sc2ccc(OCc3ccccc3)cc12)N1CCOCC1 [Cpd 013, 5-(benzyloxy)-2-(difluoromethyl)-N-[2-methyl-2-(morpholin-4-yl)propyl]-1-benzothiophene-3-carboxamide] | 1000 to 20000 nM
30 | CC(C)(O)CNC(=O)c1c(C(F)F)sc2ccc(OCc3ccccc3)cc12 [Cpd 014, 5-(benzyloxy)-2-(difluoromethyl)-N-(2-hydroxy-2-methylpropyl)-1-benzothiophene-3-carboxamide] | > 20000 nM
